Holding throughout (assay): relative viability (nuclei count vs DMSO), 5 days (fraction); higher = more cells survive
Compound in the experiment “Vemurafenib + Linsitinib”: CCCS(=O)(=O)Nc1ccc(F)c(C(=O)c2c[nH]c3ncc(-c4ccc(Cl)cc4)cc23)c1F [Vemurafenib] + C[C@]1(O)C[C@@H](c2nc(-c3ccc4ccc(-c5ccccc5)nc4c3)c3c(N)nccn32)C1 [Linsitinib] (partner 1 µM)
Put shortly:
(§1)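 For relative viability, nuclei counts in treated wells were divided by those in vehicle wells. Lung cancer cell lines had been pin-tool dosed in 1536-well plates the day after seeding and cultured for 5 days, then fixed and stained in one step (final 0.05% Triton X-100, 1% formaldehyde, 1 ug/ml Hoechst) and imaged at 4×. Doses were one drug alone or a fixed anchor-drug dose plus five library-drug doses (not always all listed) in √10 steps, and values are duplicate-plate medians.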

Compound in the experiment “OSI-027 + AZD7762”: COc1cccc2cc(-c3nc([C@H]4CC[C@H](C(=O)O)CC4)n4ncnc(N)c34)[nH]c12 [OSI-027] + NC(=O)Nc1cc(-c2cccc(F)c2)sc1C(=O)N[C@H]1CCCNC1 [AZD7762] (partner 0.2 µM)
Put shortly:
as §1

Compound in the experiment “Alpelisib + Luminespib”: Cc1nc(NC(=O)N2CCC[C@H]2C(N)=O)sc1-c1ccnc(C(C)(C)C(F)(F)F)c1 [Alpelisib] + CCNC(=O)c1noc(-c2cc(C(C)C)c(O)cc2O)c1-c1ccc(CN2CCOCC2)cc1 [Luminespib] (partner 0.01 µM)
An outline of the steps:
as §1

Compound in the experiment “Alpelisib + Vorinostat”: Cc1nc(NC(=O)N2CCC[C@H]2C(N)=O)sc1-c1ccnc(C(C)(C)C(F)(F)F)c1 [Alpelisib] + O=C(CCCCCCC(=O)Nc1ccccc1)NO [Vorinostat] (partner 1 µM)
Put shortly:
as §1

Among the data in the supplement of paper PMC10307832 are relative viability values, retold here.

Regarding 201T, the relative viability came to 0.994 in the experiment with Vemurafenib + Linsitinib (first compound 0.03162 µM); 0.969 with Vemurafenib + Linsitinib (first compound 0.1 µM); 1.06 with Vemurafenib + Linsitinib (first compound 0.3162 µM); 0.989 with Vemurafenib + Linsitinib (first compound 1 µM); 0.562 with OSI-027 + AZD7762 (first compound 0.01 µM); 0.691 with OSI-027 + AZD7762 (first compound 0.03162 µM). The relative viability stood at 0.585 in the experiment with OSI-027 + AZD7762 (first compound 0.1 µM); 0.472 with OSI-027 + AZD7762 (first compound 0.3162 µM); 0.511 in the experiment with OSI-027 + AZD7762 (first compound 1 µM); 1.08 in the experiment with Alpelisib + Luminespib (first compound 0.04 µM); 1.02 with Alpelisib + Luminespib (first compound 0.1265 µM); 1.02 in the experiment with Alpelisib + Luminespib (first compound 0.4 µM). For the same cell line, the relative viability with Alpelisib + Luminespib (first compound 1.265 µM) is 0.961; in the experiment with Alpelisib + Luminespib (first compound 4 µM), 0.956; with Alpelisib + Vorinostat (first compound 0.04 µM), 0.928; in the experiment with Alpelisib + Vorinostat (first compound 0.1265 µM) it was 0.928; with Alpelisib + Vorinostat (first compound 0.4 µM), 0.949; in the experiment with Alpelisib + Vorinostat (first compound 1.265 µM), 0.842. In the experiment with Alpelisib + Vorinostat (first compound 4 µM), the relative viability came out at 0.831.
A549: the relative viability in the experiment with Vemurafenib + Linsitinib (first compound 0.03162 µM) was 0.584; with Vemurafenib + Linsitinib (first compound 0.1 µM), 0.444; in the experiment with Vemurafenib + Linsitinib (first compound 0.3162 µM) it was 0.515; in the experiment with Vemurafenib + Linsitinib (first compound 1 µM), 0.567.
Consider A-427, for which the relative viability came to 1.09 with Vemurafenib + Linsitinib (first compound 0.03162 µM); 1.1 in the experiment with Vemurafenib + Linsitinib (first compound 0.1 µM); 1.03 in the experiment with Vemurafenib + Linsitinib (first compound 0.3162 µM); 1.15 in the experiment with Vemurafenib + Linsitinib (first compound 1 µM); 0.676 in the experiment with OSI-027 + AZD7762 (first compound 0.01 µM); 0.52 in the experiment with OSI-027 + AZD7762 (first compound 0.03162 µM). In addition, the relative viability with OSI-027 + AZD7762 (first compound 0.1 µM) worked out at 0.557; with OSI-027 + AZD7762 (first compound 0.3162 µM), 0.541; with OSI-027 + AZD7762 (first compound 1 µM) it was 0.399; with Alpelisib + Luminespib (first compound 0.04 µM), 0.909; with Alpelisib + Luminespib (first compound 0.1265 µM), 0.881; with Alpelisib + Luminespib (first compound 0.4 µM), 1.09. Further, the relative viability with Alpelisib + Luminespib (first compound 1.265 µM) is 0.83; with Alpelisib + Luminespib (first compound 4 µM), 0.92; with Alpelisib + Vorinostat (first compound 0.04 µM) it was 0.854; with Alpelisib + Vorinostat (first compound 0.1265 µM) it was 0.861; in the experiment with Alpelisib + Vorinostat (first compound 0.4 µM), 0.893; with Alpelisib + Vorinostat (first compound 1.265 µM), 0.827. Further, in the experiment with Alpelisib + Vorinostat (first compound 4 µM), the relative viability was 0.858.
For ABC-1, the relative viability is 0.711 with Vemurafenib + Linsitinib (first compound 0.03162 µM); 0.753 in the experiment with Vemurafenib + Linsitinib (first compound 0.1 µM); 0.942 with Vemurafenib + Linsitinib (first compound 0.3162 µM); 0.853 with Vemurafenib + Linsitinib (first compound 1 µM); 0.886 with OSI-027 + AZD7762 (first compound 0.01 µM); 0.764 with OSI-027 + AZD7762 (first compound 0.03162 µM). The relative viability with OSI-027 + AZD7762 (first compound 0.1 µM) was 0.728; with OSI-027 + AZD7762 (first compound 0.3162 µM), 0.555; in the experiment with OSI-027 + AZD7762 (first compound 1 µM) it was 0.602; with Alpelisib + Luminespib (first compound 0.04 µM), 0.432; with Alpelisib + Luminespib (first compound 0.1265 µM), 0.932; with Alpelisib + Luminespib (first compound 0.4 µM), 0.554. Besides, the relative viability was found to be 0.228 with Alpelisib + Luminespib (first compound 1.265 µM); 0.391 with Alpelisib + Luminespib (first compound 4 µM); 1.15 with Alpelisib + Vorinostat (first compound 0.04 µM); 0.602 with Alpelisib + Vorinostat (first compound 0.1265 µM); 0.905 with Alpelisib + Vorinostat (first compound 0.4 µM); 0.869 with Alpelisib + Vorinostat (first compound 1.265 µM). The relative viability in the experiment with Alpelisib + Vorinostat (first compound 4 µM) came to 0.692.
As for BEN, the relative viability came to 0.913 in the experiment with Vemurafenib + Linsitinib (first compound 0.03162 µM); 0.921 in the experiment with Vemurafenib + Linsitinib (first compound 0.1 µM); 0.683 in the experiment with Vemurafenib + Linsitinib (first compound 0.3162 µM); 0.724 with Vemurafenib + Linsitinib (first compound 1 µM); 0.698 in the experiment with OSI-027 + AZD7762 (first compound 0.01 µM); 0.604 in the experiment with OSI-027 + AZD7762 (first compound 0.03162 µM). The relative viability in the experiment with OSI-027 + AZD7762 (first compound 0.1 µM) came to 0.435; in the experiment with OSI-027 + AZD7762 (first compound 0.3162 µM), 0.464; with OSI-027 + AZD7762 (first compound 1 µM), 0.463; with Alpelisib + Luminespib (first compound 0.04 µM), 0.341; with Alpelisib + Luminespib (first compound 0.1265 µM), 0.101; with Alpelisib + Luminespib (first compound 0.4 µM), 0.474. Further, the relative viability came out at 0.332 in the experiment with Alpelisib + Luminespib (first compound 1.265 µM); 0.159 with Alpelisib + Luminespib (first compound 4 µM); 0.588 with Alpelisib + Vorinostat (first compound 0.04 µM); 0.544 with Alpelisib + Vorinostat (first compound 0.1265 µM); 0.715 in the experiment with Alpelisib + Vorinostat (first compound 0.4 µM); 0.578 in the experiment with Alpelisib + Vorinostat (first compound 1.265 µM). In addition, in the experiment with Alpelisib + Vorinostat (first compound 4 µM), the relative viability was 0.584.
Consider CAL-12T, for which the relative viability was 0.723 with Vemurafenib + Linsitinib (first compound 0.03162 µM); 0.549 with Vemurafenib + Linsitinib (first compound 0.1 µM); 1.02 with Vemurafenib + Linsitinib (first compound 0.3162 µM); 0.819 with Vemurafenib + Linsitinib (first compound 1 µM); 0.626 in the experiment with OSI-027 + AZD7762 (first compound 0.01 µM); 0.741 with OSI-027 + AZD7762 (first compound 0.03162 µM). Further, the relative viability in the experiment with OSI-027 + AZD7762 (first compound 0.1 µM) was 0.603; with OSI-027 + AZD7762 (first compound 0.3162 µM), 0.668; in the experiment with OSI-027 + AZD7762 (first compound 1 µM), 0.585; in the experiment with Alpelisib + Luminespib (first compound 0.04 µM) it was 0.394; with Alpelisib + Luminespib (first compound 0.1265 µM), 0.61; in the experiment with Alpelisib + Luminespib (first compound 0.4 µM) it was 0.287. The relative viability with Alpelisib + Luminespib (first compound 1.265 µM) was determined as 0.177; in the experiment with Alpelisib + Luminespib (first compound 4 µM) it was 0.332; in the experiment with Alpelisib + Vorinostat (first compound 0.04 µM), 0.755; with Alpelisib + Vorinostat (first compound 0.1265 µM), 0.783; with Alpelisib + Vorinostat (first compound 0.4 µM), 0.948; with Alpelisib + Vorinostat (first compound 1.265 µM), 0.468. For the same cell line, the relative viability with Alpelisib + Vorinostat (first compound 4 µM) turned out to be 0.64.
As to COR-L23, the relative viability in the experiment with Vemurafenib + Linsitinib (first compound 0.03162 µM) is 0.774; with Vemurafenib + Linsitinib (first compound 0.1 µM) it was 0.733; with Vemurafenib + Linsitinib (first compound 0.3162 µM) it was 0.789; with Vemurafenib + Linsitinib (first compound 1 µM) it was 1.01; with Alpelisib + Luminespib (first compound 0.04 µM), 0.678; with Alpelisib + Luminespib (first compound 0.1265 µM) it was 0.748. For the same cell line, the relative viability with Alpelisib + Luminespib (first compound 0.4 µM) is 0.696; with Alpelisib + Luminespib (first compound 1.265 µM), 0.62; with Alpelisib + Luminespib (first compound 4 µM), 0.477; in the experiment with Alpelisib + Vorinostat (first compound 0.04 µM), 0.438; in the experiment with Alpelisib + Vorinostat (first compound 0.1265 µM), 0.474; with Alpelisib + Vorinostat (first compound 0.4 µM), 0.398. Besides, the values for the relative viability with Alpelisib + Vorinostat (first compound 1.265 µM) and with Alpelisib + Vorinostat (first compound 4 µM) were 0.283 and 0.272, respectively.
For the cell line COR-L 105, the relative viability amounted to 1 with Vemurafenib + Linsitinib (first compound 0.03162 µM); 1.3 with Vemurafenib + Linsitinib (first compound 0.3162 µM); 1.17 in the experiment with Vemurafenib + Linsitinib (first compound 1 µM); 0.768 in the experiment with Alpelisib + Luminespib (first compound 0.04 µM); 0.565 with Alpelisib + Luminespib (first compound 0.1265 µM); 0.956 with Alpelisib + Luminespib (first compound 0.4 µM). In addition, the relative viability in the experiment with Alpelisib + Luminespib (first compound 1.265 µM) turned out to be 0.59; with Alpelisib + Luminespib (first compound 4 µM), 0.86; with Alpelisib + Vorinostat (first compound 0.04 µM), 0.867; in the experiment with Alpelisib + Vorinostat (first compound 0.1265 µM), 0.86; with Alpelisib + Vorinostat (first compound 0.4 µM) it was 0.784; in the experiment with Alpelisib + Vorinostat (first compound 1.265 µM) it was 0.668. The relative viability with Alpelisib + Vorinostat (first compound 4 µM) is 0.838.
For the cell line Calu-6, the relative viability came out at 0.981 with Vemurafenib + Linsitinib (first compound 0.1 µM), 0.745 with Vemurafenib + Linsitinib (first compound 0.3162 µM) and 0.927 with Vemurafenib + Linsitinib (first compound 1 µM).
For ChaGo-K-1, the relative viability with OSI-027 + AZD7762 (first compound 0.01 µM) was found to be 0.912; with OSI-027 + AZD7762 (first compound 0.03162 µM), 0.902; with OSI-027 + AZD7762 (first compound 0.1 µM), 0.936; with OSI-027 + AZD7762 (first compound 0.3162 µM), 0.836; with OSI-027 + AZD7762 (first compound 1 µM) it was 0.756; in the experiment with Alpelisib + Luminespib (first compound 0.04 µM) it was 0.61. In addition, the relative viability with Alpelisib + Luminespib (first compound 0.1265 µM) was 0.488; with Alpelisib + Luminespib (first compound 0.4 µM), 0.706; in the experiment with Alpelisib + Luminespib (first compound 1.265 µM), 0.585; in the experiment with Alpelisib + Luminespib (first compound 4 µM) it was 0.507; with Alpelisib + Vorinostat (first compound 0.04 µM) it was 0.698; with Alpelisib + Vorinostat (first compound 0.1265 µM), 0.759. The relative viability in the experiment with Alpelisib + Vorinostat (first compound 0.4 µM) was 0.825; with Alpelisib + Vorinostat (first compound 1.265 µM), 0.573; with Alpelisib + Vorinostat (first compound 4 µM), 0.564.
Take EBC-1: the relative viability in the experiment with Vemurafenib + Linsitinib (first compound 0.03162 µM) is 0.859; with Vemurafenib + Linsitinib (first compound 0.1 µM), 0.822; with Vemurafenib + Linsitinib (first compound 0.3162 µM), 0.891; with Vemurafenib + Linsitinib (first compound 1 µM), 1.02.
